Experimental data reported in the NIST ThermoML archive (doi:10.1016/j.jct.2018.02.003).
Values joined by “and” are separate entries in the source; they are usually repeats but may differ in a detail not shown here. Identical values can stand only once.

Conditions: Liquid; for speed of sound: Frequency=3 MHz, Single path-length method; for mass density: Vibrating tube method

COC(F)(C(F)(F)C(F)(F)F)C(F)(C(F)(F)F)C(F)(F)F (configuration not stated)
Conditions | mass density | speed of sound [m/s]
293.15 K, 100 kPa | 1668.2 kg/m3 and 1668.43 kg/m3 | 644.5
293.15 K, 1000 kPa | 1670.8 kg/m3 | –
293.15 K, 5000 kPa | 1681.9 kg/m3 | –
293.15 K, 10000 kPa | 1694.8 kg/m3 | –
293.15 K, 15000 kPa | 1706.6 kg/m3 | –
293.15 K, 20000 kPa | 1717.6 kg/m3 | –
293.15 K, 25000 kPa | 1727.9 kg/m3 | –
293.15 K, 30000 kPa | 1737.7 kg/m3 | –
293.15 K, 35000 kPa | 1746.9 kg/m3 | –
293.15 K, 40000 kPa | 1755.6 kg/m3 | –
293.15 K, 45000 kPa | 1764 kg/m3 | –
293.15 K, 50000 kPa | 1772 kg/m3 | –
293.15 K, 55000 kPa | 1779.7 kg/m3 | –
293.15 K, 60000 kPa | 1787 kg/m3 | –
293.15 K, 65000 kPa | 1794.1 kg/m3 | –
293.15 K, 70000 kPa | 1800.9 kg/m3 | –
293.15 K, 80000 kPa | 1814 kg/m3 | –
293.15 K, 90000 kPa | 1826.3 kg/m3 | –
293.15 K, 100000 kPa | 1837.8 kg/m3 | –
293.15 K, 110000 kPa | 1848.8 kg/m3 | –
293.15 K, 120000 kPa | 1859.3 kg/m3 | –
293.15 K, 130000 kPa | 1869.3 kg/m3 | –
293.15 K, 140000 kPa | 1878.8 kg/m3 | –
298.15 K, 100 kPa | 1656.7 kg/m3 and 1656.79 kg/m3 | 629.44
298.15 K, 1000 kPa | 1659.4 kg/m3 | –
298.15 K, 5000 kPa | 1671 kg/m3 | –
298.15 K, 10000 kPa | 1684.4 kg/m3 | –
298.15 K, 15000 kPa | 1696.6 kg/m3 | –
298.15 K, 20000 kPa | 1708 kg/m3 | –
298.15 K, 25000 kPa | 1718.6 kg/m3 | –
298.15 K, 30000 kPa | 1728.6 kg/m3 | –
298.15 K, 35000 kPa | 1738.1 kg/m3 | –
298.15 K, 40000 kPa | 1747.1 kg/m3 | –
298.15 K, 45000 kPa | 1755.6 kg/m3 | –
298.15 K, 50000 kPa | 1763.8 kg/m3 | –
298.15 K, 55000 kPa | 1771.7 kg/m3 | –
298.15 K, 60000 kPa | 1779.3 kg/m3 | –
298.15 K, 65000 kPa | 1786.5 kg/m3 | –
298.15 K, 70000 kPa | 1793.4 kg/m3 | –
298.15 K, 80000 kPa | 1806.7 kg/m3 | –
298.15 K, 90000 kPa | 1819.1 kg/m3 | –
298.15 K, 100000 kPa | 1831 kg/m3 | –
298.15 K, 110000 kPa | 1842 kg/m3 | –
298.15 K, 120000 kPa | 1852.7 kg/m3 | –
298.15 K, 130000 kPa | 1862.8 kg/m3 | –
298.15 K, 140000 kPa | 1872.5 kg/m3 | –
303.15 K, 100 kPa | 1645.11 kg/m3 | 614.76
313.15 K, 100 kPa | 1621.3 kg/m3 and 1621.41 kg/m3 | 585.65
313.15 K, 1000 kPa | 1624.5 kg/m3 | –
313.15 K, 5000 kPa | 1637.7 kg/m3 | –
313.15 K, 10000 kPa | 1652.7 kg/m3 | –
313.15 K, 15000 kPa | 1666.3 kg/m3 | –
313.15 K, 20000 kPa | 1678.8 kg/m3 | –
313.15 K, 25000 kPa | 1690.4 kg/m3 | –
313.15 K, 30000 kPa | 1701.4 kg/m3 | –
313.15 K, 35000 kPa | 1711.6 kg/m3 | –
313.15 K, 40000 kPa | 1721.2 kg/m3 | –
313.15 K, 45000 kPa | 1730.5 kg/m3 | –
313.15 K, 50000 kPa | 1739.2 kg/m3 | –
313.15 K, 55000 kPa | 1747.6 kg/m3 | –
313.15 K, 60000 kPa | 1755.5 kg/m3 | –
313.15 K, 65000 kPa | 1763.3 kg/m3 | –
313.15 K, 70000 kPa | 1770.7 kg/m3 | –
313.15 K, 80000 kPa | 1784.8 kg/m3 | –
313.15 K, 90000 kPa | 1797.9 kg/m3 | –
313.15 K, 100000 kPa | 1810.2 kg/m3 | –
313.15 K, 110000 kPa | 1822 kg/m3 | –
313.15 K, 120000 kPa | 1832.9 kg/m3 | –
313.15 K, 130000 kPa | 1843.5 kg/m3 | –
313.15 K, 140000 kPa | 1853.5 kg/m3 | –
323.15 K, 100 kPa | 1597.04 kg/m3 | 557.04
333.15 K, 100 kPa | 1572.7 kg/m3 and 1572.8 kg/m3 | 529.01
333.15 K, 1000 kPa | 1576.5 kg/m3 | –
333.15 K, 5000 kPa | 1592.3 kg/m3 | –
333.15 K, 10000 kPa | 1609.9 kg/m3 | –
333.15 K, 15000 kPa | 1625.7 kg/m3 | –
333.15 K, 20000 kPa | 1639.8 kg/m3 | –
333.15 K, 25000 kPa | 1653 kg/m3 | –
333.15 K, 30000 kPa | 1665.2 kg/m3 | –
333.15 K, 35000 kPa | 1676.5 kg/m3 | –
333.15 K, 40000 kPa | 1687.3 kg/m3 | –
333.15 K, 45000 kPa | 1697.5 kg/m3 | –
333.15 K, 50000 kPa | 1707 kg/m3 | –
333.15 K, 55000 kPa | 1716.1 kg/m3 | –
333.15 K, 60000 kPa | 1724.7 kg/m3 | –
333.15 K, 65000 kPa | 1733.1 kg/m3 | –
333.15 K, 70000 kPa | 1741 kg/m3 | –
333.15 K, 80000 kPa | 1756.1 kg/m3 | –
333.15 K, 90000 kPa | 1770.2 kg/m3 | –
333.15 K, 100000 kPa | 1783.3 kg/m3 | –
333.15 K, 110000 kPa | 1795.6 kg/m3 | –
333.15 K, 120000 kPa | 1807.3 kg/m3 | –
333.15 K, 130000 kPa | 1818.5 kg/m3 | –
333.15 K, 140000 kPa | 1829.1 kg/m3 | –
353.15 K, 100 kPa | 1521.7 kg/m3 | –
353.15 K, 1000 kPa | 1526.5 kg/m3 | –
353.15 K, 5000 kPa | 1545.6 kg/m3 | –
353.15 K, 10000 kPa | 1566.5 kg/m3 | –
353.15 K, 15000 kPa | 1584.7 kg/m3 | –
353.15 K, 20000 kPa | 1601 kg/m3 | –
353.15 K, 25000 kPa | 1615.8 kg/m3 | –
353.15 K, 30000 kPa | 1629.5 kg/m3 | –
353.15 K, 35000 kPa | 1642.1 kg/m3 | –
353.15 K, 40000 kPa | 1653.7 kg/m3 | –
353.15 K, 45000 kPa | 1664.8 kg/m3 | –
353.15 K, 50000 kPa | 1675.2 kg/m3 | –
353.15 K, 55000 kPa | 1685.1 kg/m3 | –
353.15 K, 60000 kPa | 1694.5 kg/m3 | –
353.15 K, 65000 kPa | 1703.5 kg/m3 | –
353.15 K, 70000 kPa | 1712.1 kg/m3 | –
353.15 K, 80000 kPa | 1728.1 kg/m3 | –
353.15 K, 90000 kPa | 1743.1 kg/m3 | –
353.15 K, 100000 kPa | 1757 kg/m3 | –
353.15 K, 110000 kPa | 1770.1 kg/m3 | –
353.15 K, 120000 kPa | 1782.5 kg/m3 | –
353.15 K, 130000 kPa | 1794.1 kg/m3 | –
353.15 K, 140000 kPa | 1805.2 kg/m3 | –
373.15 K, 1000 kPa | 1473.5 kg/m3 | –
373.15 K, 5000 kPa | 1497.1 kg/m3 | –
373.15 K, 10000 kPa | 1521.9 kg/m3 | –
373.15 K, 15000 kPa | 1543.1 kg/m3 | –
373.15 K, 20000 kPa | 1561.5 kg/m3 | –
373.15 K, 25000 kPa | 1578.3 kg/m3 | –
373.15 K, 30000 kPa | 1593.7 kg/m3 | –
373.15 K, 35000 kPa | 1607.7 kg/m3 | –
373.15 K, 40000 kPa | 1620.4 kg/m3 | –
373.15 K, 45000 kPa | 1632.5 kg/m3 | –
373.15 K, 50000 kPa | 1643.9 kg/m3 | –
373.15 K, 55000 kPa | 1654.6 kg/m3 | –
373.15 K, 60000 kPa | 1664.7 kg/m3 | –
373.15 K, 65000 kPa | 1674.3 kg/m3 | –
373.15 K, 70000 kPa | 1683.4 kg/m3 | –
373.15 K, 80000 kPa | 1700.6 kg/m3 | –
373.15 K, 90000 kPa | 1716.5 kg/m3 | –
373.15 K, 100000 kPa | 1731.3 kg/m3 | –
373.15 K, 110000 kPa | 1745.1 kg/m3 | –
373.15 K, 120000 kPa | 1758.1 kg/m3 | –
373.15 K, 130000 kPa | 1770.3 kg/m3 | –
373.15 K, 140000 kPa | 1782 kg/m3 | –
393.15 K, 1000 kPa | 1417.2 kg/m3 | –
393.15 K, 5000 kPa | 1446.9 kg/m3 | –
393.15 K, 10000 kPa | 1476.7 kg/m3 | –
393.15 K, 15000 kPa | 1501.4 kg/m3 | –
393.15 K, 20000 kPa | 1522.8 kg/m3 | –
393.15 K, 25000 kPa | 1541.5 kg/m3 | –
393.15 K, 30000 kPa | 1558.4 kg/m3 | –
393.15 K, 35000 kPa | 1573.8 kg/m3 | –
393.15 K, 40000 kPa | 1588 kg/m3 | –
393.15 K, 45000 kPa | 1601 kg/m3 | –
393.15 K, 50000 kPa | 1613.3 kg/m3 | –
393.15 K, 55000 kPa | 1624.9 kg/m3 | –
393.15 K, 60000 kPa | 1635.8 kg/m3 | –
393.15 K, 65000 kPa | 1646 kg/m3 | –
393.15 K, 70000 kPa | 1655.8 kg/m3 | –
393.15 K, 80000 kPa | 1674.1 kg/m3 | –
393.15 K, 90000 kPa | 1690.9 kg/m3 | –
393.15 K, 100000 kPa | 1706.5 kg/m3 | –
393.15 K, 110000 kPa | 1721 kg/m3 | –
393.15 K, 120000 kPa | 1734.7 kg/m3 | –
393.15 K, 130000 kPa | 1747.5 kg/m3 | –
393.15 K, 140000 kPa | 1759.7 kg/m3 | –
